In the NIST ThermoML archive (doi:10.1021/je600519p):

Assay: refractive index (Na D-line) (dimensionless); xn = mol fraction of the nth substance listed
Settings: 101 kPa, Liquid

CC(=O)c1ccccc1 [acetophenone] + CCCCCCO
refractive index
Settings	293.15 K	303.15 K	313.15 K	323.15 K
x1 = 0.0498	1.4234	1.4196	1.4153	1.4113
x1 = 0.1009	1.4291	1.4253	1.421	1.417
x1 = 0.1517	1.4348	1.431	1.4267	1.4227
x1 = 0.2106	1.4415	1.4377	1.4334	1.4293
x1 = 0.2474	1.4457	1.4419	1.4376	1.4335
x1 = 0.3028	1.4521	1.4482	1.4439	1.4398
x1 = 0.3426	1.4567	1.4528	1.4484	1.4443
x1 = 0.3978	1.4631	1.4591	1.4547	1.4506
x1 = 0.4512	1.4693	1.4653	1.4608	1.4567
x1 = 0.4985	1.4748	1.4707	1.4662	1.4621
x1 = 0.5526	1.4811	1.4769	1.4724	1.4682
x1 = 0.6071	1.4874	1.4832	1.4786	1.4743
x1 = 0.6491	1.4923	1.488	1.4834	1.479
x1 = 0.7101	1.4994	1.495	1.4903	1.4858
x1 = 0.7485	1.5039	1.4994	1.4947	1.4901
x1 = 0.8019	1.5101	1.5056	1.5008	1.4962
x1 = 0.8521	1.516	1.5114	1.5066	1.5019
x1 = 0.9045	1.5222	1.5175	1.5126	1.5079
x1 = 0.9554	1.5283	1.5235	1.5185	1.5137

CC(=O)c1ccccc1 [acetophenone] + CCOC(=O)OCC
refractive index
Settings	293.15 K	303.15 K	313.15 K	323.15 K
x2 = 0.0511	1.5269	1.5221	1.5172	1.5123
x2 = 0.1014	1.5201	1.5154	1.5107	1.506
x2 = 0.1501	1.5134	1.5089	1.5043	1.4998
x2 = 0.1996	1.5065	1.5022	1.4976	1.4932
x2 = 0.2465	1.5001	1.4958	1.4913	1.4869
x2 = 0.3041	1.4919	1.4877	1.4833	1.479
x2 = 0.3467	1.4858	1.4817	1.4774	1.4731
x2 = 0.4001	1.4781	1.474	1.4697	1.4656
x2 = 0.4507	1.4707	1.4666	1.4624	1.4583
x2 = 0.4888	1.4651	1.461	1.4568	1.4527
x2 = 0.5506	1.4558	1.4518	1.4475	1.4435
x2 = 0.6038	1.4477	1.4437	1.4395	1.4353
x2 = 0.6498	1.4406	1.4366	1.4323	1.4282
x2 = 0.7104	1.4312	1.4271	1.4228	1.4186
x2 = 0.7513	1.4247	1.4206	1.4164	1.4121
x2 = 0.8078	1.4158	1.4116	1.4072	1.4029
x2 = 0.8522	1.4086	1.4043	1.3999	1.3957
x2 = 0.8993	1.401	1.3966	1.3922	1.3878
x2 = 0.9488	1.3929	1.3884	1.3839	1.3791

CCOC(=O)OCC [diethyl carbonate] + CCCCCCO
refractive index
Settings	293.15 K	303.15 K	313.15 K	323.15 K
x1 = 0.0502	1.4168	1.4131	1.4089	1.4049
x1 = 0.1123	1.4152	1.4115	1.4075	1.4036
x1 = 0.1499	1.4143	1.4106	1.4065	1.4026
x1 = 0.2103	1.4125	1.4088	1.4047	1.4007
x1 = 0.2508	1.4111	1.4074	1.4034	1.3994
x1 = 0.3121	1.4089	1.4051	1.4011	1.3971
x1 = 0.3576	1.4071	1.4033	1.3992	1.3953
x1 = 0.4113	1.4049	1.4011	1.3969	1.3931
x1 = 0.4632	1.4028	1.3989	1.3947	1.3909
x1 = 0.5111	1.4008	1.3969	1.3927	1.3887
x1 = 0.552	1.3991	1.3952	1.3909	1.3868
x1 = 0.6008	1.3972	1.3931	1.3888	1.3846
x1 = 0.6498	1.3953	1.3911	1.3867	1.3825
x1 = 0.7108	1.3929	1.3887	1.3842	1.3798
x1 = 0.7554	1.3912	1.387	1.3825	1.3779
x1 = 0.8112	1.3894	1.3851	1.3805	1.3758
x1 = 0.8501	1.3883	1.3838	1.3792	1.3745
x1 = 0.9002	1.3869	1.3823	1.3776	1.3729
x1 = 0.9555	1.3855	1.3809	1.3762	1.3714
